Consider two molecules from patent publication US20220288057A1, “CONJOINT THERAPY FOR TREATING SEIZURE DISORDERS” (XENON PHARMACEUTICALS INC., priority 2021, published 2022).

The assay deals with AC-MES-induced tonic seizures in CF-1 mice. Nature of the assay: Mouse AC-MES assay (60 Hz, 40 mA, 0.2 s). The format is in vivo. The method, then:
The efficacy of Compound A and its pharmacological interaction with Lacosamide was evaluated after oral dosing in the mouse maximal electroshock seizure (AC-MES) assay.
The objective of these studies was to characterize the dose-dependent anticonvulsant activity of Compound A and its pharmacological interaction with Lacosamide in the AC-MES assay in mice after a single oral administration of the compounds. The AC-MES assay is typically responsive to non-selective sodium channel blockers and potassium channel openers, and has been used as a translational animal model for partial onset seizures.
The anticonvulsant efficacy of Compound A and Lacosamide, and the effect of combining Compound A with Lacosamide were tested in the AC-MES assay in male CF-1 mice following a single PO dose. Plasma and brain samples were obtained to understand the relationship between drug concentration and efficacy.
AC-MES Assay: The MES test has been extensively used in the search for anticonvulsant substances (Piredda et al., Löscher et al., and White et al.). The MES test is considered a model for generalized tonic-clonic (GTC) seizures and provides an indication of a compound's ability to prevent seizure spread. In the AC-MES model, an electroshock of alternating current (60 Hz, 40 mA) was delivered for 0.2 seconds by corneal electrodes (HSE-HA Rodent Shocker, Harvard Apparatus, model no: 73-0105). CF-1 mice were dosed PO (according to Standard Operating Procedure (SOP) TECH-006) with vehicle or Compound A 0.5 hours before the electroshock assay Immediately prior to the electroshock stimulation, the animals' eyes were anesthetized with a topical application of 0.5% Alcaine solution (proparacaine hydrochloride, one drop per eye). Mice were then restrained, the corneal electrodes applied, and the shock administered. In naïve animals, the seizure is characterized by an initial generalized tonic seizure with hindlimb tonic extensor component. An animal is considered protected from MES-induced seizures upon abolition of the hindlimb tonic extensor component of the seizure and is then scored “0”. […] Mice were euthanized immediately after an initial seizure score assessment following the electroshock for plasma and brain collection.
Data Processing and Analysis: All statistics were calculated using GraphPad Prism version 8 software. Concentration response curves were generated using the Hill Langmuir equation:
Y=B+(T−B)×x^n/(IC50^n+x^n), Equation 1
where: • B=bottom, set as 0. • T=top, set as 1. • n=the Hill coefficient, constrained to less than zero. • IC50=concentration of a compound required for 50% inhibition in vitro.
All group data is expressed as mean. Between-group differences were analyzed using Kruskal-Wallis followed by Dunn's multiple comparison test.
Plasma and brain samples were obtained to understand the relationship between drug concentration and efficacy.
The Blinding and Randomization, Clinical Observations, AC-MES Assay, Sample Collection and Preparation, Plasma and Brain Samples Analysis, and Bioanalysis Procedures in Example 4 were identical to those used in Example 2.
Sample concentration determination and Data Processing and Analysis in Example 4 was identical to Example 2.

For `NC(=O)O[C@@H](Cn1ncnn1)c1ccccc1Cl` [Cenobamate, reference compound], the “fraction of animals seizing” value runs as follows: (Cenobamate 7.5 mg/kg PO, 2 h, alone) 3/7; (Cenobamate 10 mg/kg PO, 2 h, alone) 1/8; (Cenobamate 30 mg/kg PO, 2 h, alone) 0/8; (Cenobamate lower doses of 3 and 5 mg/kg PO, 2 h, alone) 7/8; (Study 4F, Cenobamate 5 mg/kg PO, 2 h, alone) 8/8. The “Fraction Seizing” value is listed as 8/8 (Study 4D, Cenobamate 3 mg/kg single oral dose, 2 h pre-treatment, vehicle 8/8); 1/8 (Study 4D, Cenobamate 10 mg/kg single oral dose, 2 h pre-treatment, vehicle 8/8); 0/8 (Study 4D, Cenobamate 30 mg/kg single oral dose, vehicle 8/8); 6/7 (Study 4E, Cenobamate 3 mg/kg single oral dose, 2 h pre-treatment, vehicle 8/8); 6/7 (Study 4E, Cenobamate 5 mg/kg single oral dose, 2 h pre-treatment, vehicle 8/8); 3/8 (Study 4E, Cenobamate 7.5 mg/kg single oral dose, 2 h pre-treatment, vehicle 8/8). The “Fraction Seizing” value (Study 4F, Cenobamate 5 mg/kg PO alone, 2 h pre-treatment, vehicle 8/8) was 8/8.

With `COC[C@@H](NC(C)=O)C(=O)NCc1ccccc1` [Lacosamide, reference compound], the “Fraction Seizing” value is recorded as 8/8 (Study 2A, Lacosamide 6 mg/kg PO, 2 h); 8/8 (Study 2A, Lacosamide 8 mg/kg PO, 2 h); 8/8 (Study 2B, Lacosamide 10 mg/kg PO, 2 h); 6/8 (Study 2C, Lacosamide 10 mg/kg PO, 2 h, alone); 8/8 (Study 2D, Lacosamide 6 mg/kg PO, 2 h); 3/8 (Study 2D, Lacosamide 20 mg/kg PO, 2 h).
